Assays:
Type in all cases: functional
[1] = species: Oryctolagus cuniculus; experiment: Concentration required to inhibit PAF-induced maximum aggregation
[2] = tested on: Mus musculus; experiment: Antiallergic activity was evaluated using active anaphylactic test after po administration in mice; conditions: read-out: ID50 (the source's name)
[3] = tested on: Rattus norvegicus; experiment: Intravenous dose required to reduce the lowering of the arterial blood pressure caused by PAF; conditions: for ED50: Rattus norvegicus, Arterial blood, iv, read-out: ID50 (the source's name)
[4] = species: Mus musculus; experiment: Dose required to inhibit PAF-induced mortality; conditions: read-out: ID50 (the source's name)
[5] = tested on: Mus musculus; experiment: Tested for effect on central nervous system in mice at 100 mg/kg peroral dose for spontaneous motor activity (SMA) expressed as percentage relative to control; conditions: route oral
[6] = species: Rattus norvegicus; experiment: Tested for dose required to inhibit endotoxin induced mortality in rats; conditions: read-out: ID50 (the source's name)
[7] = tested on: Rattus norvegicus; experiment: Tested at 10 (mg/kg) intravenous dose for percent inhibition of the arterial blood pressure in normotensive rats caused by histamine
[8] = species: Rattus norvegicus; experiment: Tested for dose required to inhibit antigen induced increased permeability; conditions: read-out: ID50 (the source's name)
[9] = species: Mus musculus; experiment: Tested for dose required to inhibit endotoxin induced mortality in mice; conditions: read-out: ID50 (the source's name)
[10] = tested on: Mus musculus; experiment: Tested for effect on central nervous system in mice at 100 mg/kg peroral dose barbiturate-sleeping time (BST); conditions: route oral
[11] = tested on: Rattus norvegicus; experiment: Tested at 10 (mg/kg) intravenous dose for percent inhibition required to reduce the lowering of the arterial blood pressure caused by histamine
[12] = species: Cavia porcellus; experiment: Tested for concentration required to inhibit histamine -induced ileum contraction
[13] = species: Cavia porcellus; experiment: Tested for concentration required to inhibit H1 histamine -induced guinea pig ileum contraction
[14] = tested on: Mus musculus; experiment: Antiallergic activity was evaluated using active anaphylactic test after po administration of 30 (mg/kg) in mice
[15] = tested on: Mus musculus; experiment: Antiallergic activity was evaluated using active anaphylactic test after po administration of 10 (mg/kg) in mice
[16] = tested on: Rattus norvegicus; experiment: Tested at 30 (mg/kg) dose for percent inhibition required to inhibit mortality in sensitized animals by histamine

Compound | IC50 [1] [nM] | ED50 [2] [mg/kg] | ED50 [3] [mg/kg] | ED50 [4] [mg/kg] | IC50 [13] [nM] | further results
COc1ncccc1CN1CCC(=C2c3ccc(Cl)cc3CCc3cccnc32)CC1 | 6000 | 17 | > 5 | – | – | –
Clc1ccc2c(c1)CCc1cccnc1C2=C1CCN(Cc2ccc(Cl)nc2)CC1 | > 100000 | 6.9 | – | 20 | – | –
Cc1cncc(CN2CCC(=C3c4ccc(Cl)cc4CCc4cccnc43)CC2)c1 [RUPATADINE] | 3700 | 13 | – | – | – | Relative to control [5]: 97%; ED50 [6]: 0.5 mg/kg; Inhibition [7]: 89%; ED50 [8]: 1.2 mg/kg; ED50 [9]: 1.2 mg/kg; X [10]: 138 min
COC(=O)c1ccncc1C(=O)N1CCC(=C2c3ccc(Cl)cc3CCc3cccnc32)CC1 | 17000 | 11 | > 5 | > 30 | – | –
O=C(c1cc[n+]([O-])cc1)N1CCC(=C2c3ccc(Cl)cc3CCc3cccnc32)CC1 | 220 | 12 | – | – | – | Inhibition [11]: 46.2%; IC50 [12]: 210 nM
Cl.Clc1ccc2c(c1)CCc1cccnc1C2=C1CCN(CCc2cccnc2)CC1 | 34000 | > 30 | > 5 | > 30 | 360 | Inhibition [7]: 95.4%
Cc1ccncc1CN1CCC(=C2c3ccc(Cl)cc3CCc3cccnc32)CC1 | 15000 | – | – | 10 | 35 | Inhibition [14]: 56%
CN1C(=O)CN=C(c2ccccc2)c2cc(Cl)ccc21 [DIAZEPAM] | – | – | – | – | – | Relative to control [5]: 54%
O=C(c1cccnc1Cl)N1CCC(=C2c3ccc(Cl)cc3CCc3cccnc32)CC1 | > 100000 | > 30 | – | – | – | IC50 [12]: 130 nM
O=C(c1ccc(O)nc1)N1CCC(=C2c3ccc(Cl)cc3CCc3cccnc32)CC1 | 1500 | > 30 | 1.5 | > 3 | 390 | Inhibition [7]: 67%
Clc1ccc2c(c1)CCc1cccnc1C2=C1CCN(Cc2cccnc2Cl)CC1 | > 100000 | 4.5 | – | – | – | IC50 [12]: 350 nM
COc1ccc(C(=O)N2CCC(=C3c4ccc(Cl)cc4CCc4cccnc43)CC2)cn1 | > 100000 | 5.5 | – | 30 | 34 | ID50 [3]: > 5 mg/kg
CC(=O)N1CCC(=C2c3ccc(Cl)cc3CCc3cccnc32)CC1 [SCH-37370] | 840 | 19 | – | – | 100 | ED50 [6]: > 5 mg/kg; Inhibition [7]: 55.1%; ED50 [8]: 10 mg/kg; ED50 [9]: > 10 mg/kg; X [10]: 296 min
O=C(c1ccc(Cl)nc1)N1CCC(=C2c3ccc(Cl)cc3CCc3cccnc32)CC1 | > 100000 | 1.9 | > 1 | 20 | – | IC50 [12]: 64 nM
CSc1ncccc1C(=O)N1CCC(=C2c3ccc(Cl)cc3CCc3cccnc32)CC1 | 20000 | – | > 5 | > 30 | – | Inhibition [15]: 50%
CC(C)(C)c1ccc(C(O)CCCN2CCC(C(O)(c3ccccc3)c3ccccc3)CC2)cc1 (centres undefined) [TERFENADINE] | – | – | – | – | – | Relative to control [5]: 90%; X [10]: 133 min

Compound | IC50 [1] [nM] | ED50 [2] [mg/kg] | ED50 [3] [mg/kg] | ED50 [4] [mg/kg] | IC50 [13] [nM] | further results
Clc1ccc2c(c1)CCc1cccnc1C2=C1CCN(Cc2cncc(Br)c2)CC1 | 720 | 17 | – | 10 | 280 | Inhibition [7]: 61.9%
CC(c1cccnc1)N1CCC(=C2c3ccc(Cl)cc3CCc3cccnc32)CC1.Cl (centres undefined) | 8200 | > 30 | > 5 | > 30 | – | –
Cc1cncc(C(=O)N2CCC(=C3c4ccc(Cl)cc4CCc4cccnc43)CC2)c1 | 3100 | 12 | > 5 | – | 350 | –
O=C(O)c1cncc(CN2CCC(=C3c4ccc(Cl)cc4CCc4cccnc43)CC2)c1 | 85000 | 6.5 | > 5 | > 30 | 350 | –
O=C(c1cncc(Br)c1)N1CCC(=C2c3ccc(Cl)cc3CCc3cccnc32)CC1 | 3400 | > 30 | > 5 | > 30 | – | –
Cc1ccc(CN2CCC(=C3c4ccc(Cl)cc4CCc4cccnc43)CC2)cn1.Cl | 9000 | 12 | – | – | 37 | Inhibition [7]: 96.4%
CCOC(=O)N1CCC(=C2c3ccc(Cl)cc3CCc3cccnc32)CC1 [LORATADINE] | – | 19 | – | – | – | Relative to control [5]: 106%; ED50 [6]: > 5 mg/kg; Inhibition [7]: 66.3%; ED50 [8]: 2.4 mg/kg; ED50 [9]: > 10 mg/kg; X [10]: 320 min
Cc1ncccc1CN1CCC(=C2c3ccc(Cl)cc3CCc3cccnc32)CC1 | 13000 | – | – | – | 270 | Inhibition [14]: 50%
Clc1ccc2c(c1)CCc1cccnc1C2=C1CCN(Cc2ccncc2)CC1 | 1800 | 6.1 | – | – | 94 | Inhibition [7]: 85.1%
O=C(c1cccnc1O)N1CCC(=C2c3ccc(Cl)cc3CCc3cccnc32)CC1 | > 100000 | – | – | > 30 | – | Inhibition [15]: 56%
Clc1ccc2c(c1)CCc1cccnc1C2=C1CCN(Cc2cccnc2)CC1 | 4000 | 6.7 | – | – | 93 | Inhibition [7]: 83.6%
COC(=O)c1cncc(CN2CCC(=C3c4ccc(Cl)cc4CCc4cccnc43)CC2)c1.Cl | > 100000 | – | > 5 | – | 190 | –
CN(C)CCOC(c1ccccc1)c1ccccc1 [DIPHENHYDRAMINE] | – | – | – | – | – | ED50 [6]: > 5 mg/kg; ED50 [9]: > 10 mg/kg
COc1ccc(CN2CCC(=C3c4ccc(Cl)cc4CCc4cccnc43)CC2)cn1 | 37000 | 5.9 | – | < 30 | 380 | –
[O-][n+]1cccc(CN2CCC(=C3c4ccc(Cl)cc4CCc4cccnc43)CC2)c1 | 14000 | – | > 5 | > 30 | – | Inhibition [16]: 56%

Source: ChEMBL document CHEMBL1127436, “[(3-Pyridylalkyl)piperidylidene]benzocycloheptapyridine derivatives as dual antagonists of PAF and histamine” (J Med Chem, 1994)
